US10232013B2, “Use of an antimicrobial peptide TP4 in treating a cancer” (Academia Sinica, priority 2016, dated 2019)
Marks after values point to notes of the source that are not given here. Where no end group is shown, it is not given here.

Legend:
MCF7 cells = assay: MTS cell viability assay, MCF7; assay type: cell-based, human; conditions: mean±SD
Protocol: (§1) Cell-lines used in this study were purchased from the Bioresource Collection and Research Center (BCRC) in and the cells were cultured by the standard cell culture procedures and conditions provided by the BCRC. MB231 (BCRC 60425), MB453 (BCRC 60429), and HDF cells were cultured as previously described by Ting et al. MCF7 […] cells were maintained in α-MEM medium (ThermoFisher Scientific) supplemented with 2 mM L-glutamine, 10% FBS, 0.1 mM non-essential amino acids, 1 mM sodium pyruvate, and antibiotics (100 U mL^−1 penicillin G and […] streptomycin). M10 (BCRC 60197) cells were maintained in α-MEM medium (ThermoFisher Scientific) supplemented with 10% FBS and antibiotics. With the exception of MB231 and MB453, all cells were cultured at 37° C. with 5% CO2. For the cell viability and transfection assay, 1×10^4 cells [5×10^3 M10 cells were seeded and cultured for 48 h to allow the cells sufficient time for attachment] were seeded into the wells of a 96-well plate and cultured overnight. For the transfection assays, cells were transfected with 0.1-0.4 μg FOSB/FOSAB expression plasmid (Origene Technology Inc.) and cell viability was determined after 72 h. The transfection efficiencies (number of cells expressing eGFP/all cells) of the MB231 transfection assays were determined by observing ten randomly selected fields (from three independent transfections) of control GFP plasmid transfections under an inverted microscope (Olympus, IX71) coupled to a digital camera (Olympus DP80), using an […] (LCPlanFI 20×/0.40 Ph1). CellSens standard software (Olympus) was used for image acquisition. During the drug treatment assay, inhibitors (PD98059, BAPTA-AM, and AlP II) were added 30 min prior to TP4, and cell viability was determined at indicated time-points. Transfection was performed using LipofectAMINE™ 3000 (ThermoFisher Scientific), according to the manufacturer's recommendations. Knock-down cells were generated by transducing MB231 cells with pre-synthesized FOSB (or control) shRNA lentiviral particles (Santa Cruz Biotechnology), and selecting puromycin-resistant cells in accordance with the manufacturer's standard protocol. MB231 or M10 cells stably expressing eGFP or mOrange2 were generated through transfection with peGFP-puromycin or pmOrange2-C1 plasmid, followed by puromycin (5 μg mL^−1) or G418 (500 μg mL^−1) selection as described above.
(§2) Cell viability was quantitatively analyzed using the CellTiter-Glo® Luminescent Cell Viability Assay kit (ATP assay) and CellTiter 96® AQueous Non-Radioactive Cell Proliferation Assay kit (MTS assay) (Promega) in accordance with the manufacturer's protocol. For MTS assay, 1×10^4 cells were seeded into the wells of a 96-well plate and cultured overnight [5×10^3 M10 cells were seeded and cultured for 48 h to enable sufficient well attachment]. Cells were subsequently treated with different doses of TP4 (2.5-20 μg mL^−1) and harvested at the indicated time-points (3-24 h). Reaction mixtures (20 μL: MTS+PMS, using a ratio 20:1) were directly added to the cells, and the plates were incubated for 3 h at 37° C. Absorbance at 490 nm is directly proportional to the number of living cells in culture and was measured using a photometer (SpectraMax® i3, Molecular Devices). ATP assay was performed as previously described by Ting et al. Lactate dehydrogenase (LDH) assays were performed by quantitatively measuring cell lysis with a Cytotoxicity Detection Kit^PLUS (LDH) (Roche) in accordance with the manufacturer's protocol. The LDH standard was purchased from Cayman Chemical. Briefly, 1×10^4 cells were seeded into the wells of a 96-well plate and cultured overnight. Culture media were replaced with fresh medium containing 1% FBS and cells were subsequently treated with different doses of TP4 (2.5-20 μg mL^−1). Supernatants were harvested at 3 h. […]

[1] = MTS cell viability assay, M10; assay type: cell-based; conditions: human, M10 normal human mammary epithelial cells, mean±SD, read-out: Cellular toxicity (cell viability), MTS assay
Protocol: as §1, §2

[2] = MTS cell viability assay, HDF; assay type: cell-based; conditions: human, HDF dermal fibroblasts, mean±SD, read-out: Cellular toxicity (cell viability), MTS assay
Protocol: as §1, §2

FIHHIIGGLFSAGKAIHRLIRRRRR [TP4, tilapia piscidin 4]
Cellular toxicity (cell viability), MTS assay (MCF7 cells; MCF7, TP4 2.5 μg/mL, 3 h): 98.00 ± 6.05^a
Cellular toxicity (cell viability), MTS assay (MCF7 cells; MCF7, TP4 2.5 μg/mL, 6 h): 91.20 ± 6.51^b
Cellular toxicity (cell viability), MTS assay (MCF7 cells; MCF7, TP4 2.5 μg/mL, 12 h): 93.01 ± 10.60^b
Cellular toxicity (cell viability), MTS assay (MCF7 cells; MCF7, TP4 2.5 μg/mL, 24 h): 90.83 ± 5.30^b
Cellular toxicity (cell viability), MTS assay (MCF7 cells; MCF7, TP4 5.0 μg/mL, 3 h): 83.74 ± 6.10^d
Cellular toxicity (cell viability), MTS assay (MCF7 cells; MCF7, TP4 5.0 μg/mL, 6 h): 79.17 ± 12.06^d
Cellular toxicity (cell viability), MTS assay (MCF7 cells; MCF7, TP4 5.0 μg/mL, 12 h): 77.79 ± 7.73^d
Cellular toxicity (cell viability), MTS assay (MCF7 cells; MCF7, TP4 5.0 μg/mL, 24 h): 75.19 ± 11.28^d
Cellular toxicity (cell viability), MTS assay (MCF7 cells; MCF7, TP4 10.0 μg/mL, 3 h): 75.01 ± 11.15^d
Cellular toxicity (cell viability), MTS assay (MCF7 cells; MCF7, TP4 10.0 μg/mL, 6 h): 70.30 ± 12.26^d
Cellular toxicity (cell viability), MTS assay (MCF7 cells; MCF7, TP4 10.0 μg/mL, 12 h): 68.89 ± 6.54^d
Cellular toxicity (cell viability), MTS assay (MCF7 cells; MCF7, TP4 10.0 μg/mL, 24 h): 67.00 ± 10.90^d
Cellular toxicity (cell viability), MTS assay (MCF7 cells; MCF7, TP4 15.0 μg/mL, 3 h): 45.15 ± 9.89^d
Cellular toxicity (cell viability), MTS assay (MCF7 cells; MCF7, TP4 15.0 μg/mL, 6 h): 28.28 ± 6.29^d
Cellular toxicity (cell viability), MTS assay (MCF7 cells; MCF7, TP4 15.0 μg/mL, 12 h): 26.23 ± 6.08^d
Cellular toxicity (cell viability), MTS assay (MCF7 cells; MCF7, TP4 15.0 μg/mL, 24 h): 25.09 ± 3.83^d
Cellular toxicity (cell viability), MTS assay (MCF7 cells; MCF7, TP4 20.0 μg/mL, 3 h): 24.63 ± 3.80^d
Cellular toxicity (cell viability), MTS assay (MCF7 cells; MCF7, TP4 20.0 μg/mL, 6 h): 15.48 ± 2.33^d
Cellular toxicity (cell viability), MTS assay (MCF7 cells; MCF7, TP4 20.0 μg/mL, 12 h): 14.36 ± 2.10^d
Cellular toxicity (cell viability), MTS assay (MCF7 cells; MCF7, TP4 20.0 μg/mL, 24 h): 11.90 ± 3.39^d
viability at 3 h, 2.5 μg/mL ([1]; M10, TP4 2.5 μg/mL, 3 h): 101 ± 4.23%
viability at 6 h, 2.5 μg/mL ([1]; M10, TP4 2.5 μg/mL, 6 h): 94.8 ± 7.52%
viability at 12 h, 2.5 μg/mL ([1]; M10, TP4 2.5 μg/mL, 12 h): 96 ± 5.66%
viability at 24 h, 2.5 μg/mL ([1]; M10, TP4 2.5 μg/mL, 24 h): 94 ± 3.81%
viability at 3 h, 5 μg/mL ([1]; M10, TP4 5.0 μg/mL, 3 h): 97.1 ± 4.9%
viability at 6 h, 5 μg/mL ([1]; M10, TP4 5.0 μg/mL, 6 h): 92 ± 5.12%
viability at 12 h, 5 μg/mL ([1]; M10, TP4 5.0 μg/mL, 12 h): 92.6 ± 4.99%
viability at 24 h, 5 μg/mL ([1]; M10, TP4 5.0 μg/mL, 24 h): 91.2 ± 3.99%
viability at 3 h, 10 μg/mL ([1]; M10, TP4 10.0 μg/mL, 3 h): 90.8 ± 4.76%
viability at 6 h, 10 μg/mL ([1]; M10, TP4 10.0 μg/mL, 6 h): 84 ± 7.47%
viability at 12 h, 10 μg/mL ([1]; M10, TP4 10.0 μg/mL, 12 h): 83.8 ± 4.27%
viability at 24 h, 10 μg/mL ([1]; M10, TP4 10.0 μg/mL, 24 h): 80.7 ± 5.72%
viability at 3 h, 15 μg/mL ([1]; M10, TP4 15.0 μg/mL, 3 h): 84.8 ± 5.83%
viability at 6 h, 15 μg/mL ([1]; M10, TP4 15.0 μg/mL, 6 h): 78.9 ± 5.57%
viability at 12 h, 15 μg/mL ([1]; M10, TP4 15.0 μg/mL, 12 h): 65.5 ± 6.68%
viability at 24 h, 15 μg/mL ([1]; M10, TP4 15.0 μg/mL, 24 h): 58.4 ± 6.8%
viability at 3 h, 20 μg/mL ([1]; M10, TP4 20.0 μg/mL, 3 h): 67.9 ± 5.16%
viability at 6 h, 20 μg/mL ([1]; M10, TP4 20.0 μg/mL, 6 h): 60.3 ± 4.97%
viability at 12 h, 20 μg/mL ([1]; M10, TP4 20.0 μg/mL, 12 h): 47.2 ± 8.42%
viability at 24 h, 20 μg/mL ([1]; M10, TP4 20.0 μg/mL, 24 h): 44 ± 4.5%
viability at 3 h, 2.5 μg/mL ([2]; TP4 2.5 μg/mL, 3 h): 105 ± 6.49%
viability at 6 h, 2.5 μg/mL ([2]; TP4 2.5 μg/mL, 6 h): 98.6 ± 4.42%
viability at 12 h, 2.5 μg/mL ([2]; TP4 2.5 μg/mL, 12 h): 100 ± 4.74%
viability at 24 h, 2.5 μg/mL ([2]; TP4 2.5 μg/mL, 24 h): 97.2 ± 5.62%
viability at 3 h, 5 μg/mL ([2]; TP4 5.0 μg/mL, 3 h): 103 ± 5.88%
viability at 6 h, 5 μg/mL ([2]; TP4 5.0 μg/mL, 6 h): 96.8 ± 3.43%
viability at 12 h, 5 μg/mL ([2]; TP4 5.0 μg/mL, 12 h): 93.8 ± 3.81%
viability at 24 h, 5 μg/mL ([2]; TP4 5.0 μg/mL, 24 h): 92.7 ± 6.58%
viability at 3 h, 10 μg/mL ([2]; TP4 10.0 μg/mL, 3 h): 102 ± 9.49%
viability at 6 h, 10 μg/mL ([2]; TP4 10.0 μg/mL, 6 h): 92.9 ± 2.98%
viability at 12 h, 10 μg/mL ([2]; TP4 10.0 μg/mL, 12 h): 89.6 ± 3.87%
viability at 24 h, 10 μg/mL ([2]; TP4 10.0 μg/mL, 24 h): 86.1 ± 9.39%
viability at 3 h, 15 μg/mL ([2]; TP4 15.0 μg/mL, 3 h): 103 ± 9030%
viability at 6 h, 15 μg/mL ([2]; TP4 15.0 μg/mL, 6 h): 90.8 ± 6.82%
viability at 12 h, 15 μg/mL ([2]; TP4 15.0 μg/mL, 12 h): 85.9 ± 4.24%
viability at 24 h, 15 μg/mL ([2]; TP4 15.0 μg/mL, 24 h): 82.2 ± 11.4%
viability at 3 h, 20 μg/mL ([2]; TP4 20.0 μg/mL, 3 h): 98.6 ± 13%
viability at 6 h, 20 μg/mL ([2]; TP4 20.0 μg/mL, 6 h): 81 ± 12.3%
viability at 12 h, 20 μg/mL ([2]; TP4 20.0 μg/mL, 12 h): 80.5 ± 1.58%
viability at 24 h, 20 μg/mL ([2]; TP4 20.0 μg/mL, 24 h): 72.2 ± 13.5%
